These compounds were tested against 229E Mpro (Human coronavirus 229E (HCoV-229E), UniProt P0C6X1) (assay: 229E Mpro activity). Settings: 229E Mpro EC50.
Type: biochemical
Protocol: Compounds are assayed using standard methods to assess compound activity and IC50. […] The assay buffer contains 20 mM of Tris-HCl (pH 7.3), 100 mM of NaCl, 1 mM of EDTA, 5mM of TCEP and 0.1% BSA.

Sequence of 229E Mpro (P0C6X1 2966-3267 limits assumed): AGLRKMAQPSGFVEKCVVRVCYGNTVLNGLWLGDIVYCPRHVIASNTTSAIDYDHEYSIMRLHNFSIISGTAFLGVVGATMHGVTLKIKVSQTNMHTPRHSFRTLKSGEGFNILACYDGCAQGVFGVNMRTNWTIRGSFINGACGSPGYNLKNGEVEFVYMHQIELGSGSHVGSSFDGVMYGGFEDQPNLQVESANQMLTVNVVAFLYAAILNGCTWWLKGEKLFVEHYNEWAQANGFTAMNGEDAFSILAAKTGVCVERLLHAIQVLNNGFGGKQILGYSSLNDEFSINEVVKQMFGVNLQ

| SMILES | EC50 [nM] |
| --- | --- |
| CC1(C)CCC(C[C@@H](C#N)NC(=O)[C@H](CC2CC2)NC(=O)c2cc3cccc(Cl)c3[nH]2)C(=O)N1 (single isomer, unassigned) [Compound 749 (Isomer 1)] | 2000 to 10000 |

Same assay, conditions: read-out: 229E Mpro EC50

| SMILES | EC50 [nM] |
| --- | --- |
| Cc1ccn(C(CC2CC2)C(=O)N[C@H](C#N)C[C@@H]2CCNC2=O)c(=O)c1NC(=O)OC(C)(C)C (single isomer, unassigned) [591 (Isomer 2)] | > 30000 |
| N#C[C@H](C[C@@H]1CCCNC1=O)NC(=O)[C@H](CC1CC1)NC(=O)c1cc2cc(F)cc(Br)c2[nH]1 [Compound 852, 7-bromo-N-((S)-1-(((S)-1-cyano-2-((S)-2-oxopiperidin-3-yl)ethyl)amino)-3-cyclopropyl-1-oxopropan-2-yl)-5-fluoro-1H-indole-2-carboxamide] | < 2000 |
| COCCOCCOc1cccc2[nH]c(C(=O)N[C@@H](CC3CC3)C(=O)N[C@H](C#N)C[C@@H]3CCCNC3=O)cc12 [Compound 1057, N-[(1S)-2-[[(1S)-1-cyano-2-[(3S)-2-oxo-3-piperidyl]ethyl]amino]-1-(cyclopropylmethyl)-2-oxo-ethyl]-4-[2-(2-methoxyethoxy)ethoxy]-1H-indole-2-carboxamide] | < 2000 |
| N#C[C@H](C[C@@H]1CCCNC1=O)NC(=O)[C@H](CC1CC1)NC(=O)c1cc2c(F)ccc(Br)c2[nH]1 [Compound 854] | < 2000 |
| COc1cccc2[nH]c(C(=O)N3CC4(CCCC4)C[C@H]3C(=O)N[C@H](C#N)C[C@@H]3CCNC3=O)cc12 (single isomer, unassigned) [401 (Isomer 2)] | 2000 to 10000 |
| N#C[C@H](C[C@@H]1CCNC1=O)NC(=O)C1CC2(CCCCC2)CN1C(=O)c1cc2ccc(Cl)c(Cl)c2[nH]1 (single isomer, unassigned) [986 (Isomer 1)] | < 2000 |
| COc1cccc2[nH]c(C(=O)N[C@@H](CC(C)C)C(=O)N[C@@H](C[C@@H]3CCNC3=O)C(C#N)OC(=O)NC(C)C)cc12 (stereo partly drawn) [Compound 583] | > 30000 |
| N#C[C@H](C[C@@H]1CCCNC1=O)NC(=O)[C@H](CC1CC1)NC(=O)c1cc2ccc(Cl)c(Cl)c2[nH]1 [Compound 727, 6,7-dichloro-N-[(1S)-2-[[(1S)-1-cyano-2-[(3S)-2-oxo-3-piperidyl]ethyl]amino]-1-(cyclopropylmethyl)-2-oxo-ethyl]-1H-indole-2-carboxamide] | < 2000 |
| N#C[C@H](C[C@@H]1CCCNC1=O)NC(=O)C1CC2(CCC2)CN1C(=O)c1cc2cccc(Cl)c2[nH]1 (single isomer, unassigned) [729 (Isomer 1)] | < 2000 |
| N#C[C@H](C[C@@H]1CCNC1=O)NC(=O)[C@@H](CC1CC1)n1cccc(NCC(F)(F)F)c1=O (single isomer, unassigned) [467 (Isomer 1)] | 2000 to 10000 |
| N#C[C@H](C[C@@H]1CCNC1=O)NC(=O)[C@@H](CC1CC1)N1CCc2cc[nH]c2C1=O [Compound 267A, (2R)-N-[(1S)-1-cyano-2-[(3S)-2-oxopyrrolidin-3-yl]ethyl]-3-cyclopropyl-2-(7-oxo-4,5-dihydro-1H-pyrrolo[2,3-c]pyridin-6-yl)propanamide] | > 30000 |
| CN1CCCC[C@]12CCN([C@H](CC1CC1)C(=O)N[C@H](C#N)C[C@@H]1CCNC1=O)C2=O [Compound 273A, (2R)-N-[(1S)-1-cyano-2-[(3S)-2-oxopyrrolidin-3-yl]ethyl]-3-cyclopropyl-2-[(5R)-6-methyl-1-oxo-2,6-diazaspiro[4.5]decan-2-yl]propanamide] | > 30000 |
| N#C[C@H](C[C@@H]1CCCNC1=O)NC(=O)[C@H](CC1CC1)NC(=O)c1[nH]c2cc(Br)ccc2c1F [Compound 848, 6-bromo-N-[(1S)-2-[[(1S)-1-cyano-2-[(3S)-2-oxo-3-piperidyl]ethyl]amino]-1-(cyclopropylmethyl)-2-oxo-ethyl]-3-fluoro-1H-indole-2-carboxamide] | < 2000 |
| N#C[C@H](C[C@@H]1CCNC1=O)NC(=O)[C@@H]1CS[C@H]2CC[C@H](N)C(=O)N21 [Compound 479, (3R,6S)-6-amino-N-[(1S)-1-cyano-2-[(3S)-2-oxopyrrolidin-3-yl]ethyl]-5-oxo-2,3,6,7,8,8a-hexahydrothiazolo[3,2-a]pyridine-3-carboxamide] | 10000 to 30000 |
